In the NIST ThermoML archive (doi:10.1021/je200589f):
Numbers after ± are expanded uncertainties.

Columns and labels:
[1] = for viscosity / mass density: 101.33 kPa, Liquid; for surface tension liquid-gas: Pendant drop shape; for mass density: Vibrating tube method
[2] = refractive index (Na D-line) (dimensionless); settings: 101.33 kPa, Liquid, Standard Abbe refractometry

| Compound | viscosity ([1]; 293.15 K) [mPa·s] | surface tension liquid-gas ([1]; 298.15 K) [mN/m] | viscosity ([1]; 298.15 K) [mPa·s] | surface tension liquid-gas ([1]; 303.15 K) [mN/m] | viscosity ([1]; 303.15 K) [mPa·s] | mass density ([1]; 303.15 K) [kg/m3] | surface tension liquid-gas ([1]; 308.15 K) [mN/m] | viscosity ([1]; 308.15 K) [mPa·s] | mass density ([1]; 308.15 K) [kg/m3] | surface tension liquid-gas ([1]; 313.15 K) [mN/m] | viscosity ([1]; 313.15 K) [mPa·s] | mass density ([1]; 313.15 K) [kg/m3] | surface tension liquid-gas ([1]; 318.15 K) [mN/m] | viscosity ([1]; 318.15 K) [mPa·s] | mass density ([1]; 318.15 K) [kg/m3] | surface tension liquid-gas ([1]; 323.15 K) [mN/m] | viscosity ([1]; 323.15 K) [mPa·s] | mass density ([1]; 323.15 K) [kg/m3] | viscosity ([1]; 328.15 K) [mPa·s] | mass density ([1]; 328.15 K) [kg/m3] | other results |
| --- | --- | --- | --- | --- | --- | --- | --- | --- | --- | --- | --- | --- | --- | --- | --- | --- | --- | --- | --- | --- | --- |
| CCCCn1cc[n+](CCCCCCO)c1.[Cl-] [1-butyl-3-(6-hydroxyhexyl)-1H-imidazolium chloride] | 1489.7 ± 200 | 32.05 ± 0.59 | 983.3 ± 120 | 30.8 ± 0.58 | 707 ± 76 | 1063.33 ± 0.97 | 29.65 ± 0.57 | 515.8 ± 49 | 1060.6 ± 0.96 | 28.35 ± 0.56 | 360.3 ± 29 | 1057.85 ± 0.96 | 27.3 ± 0.55 | 271.5 ± 19 | 1055.25 ± 0.95 | 25.9 ± 0.54 | 207.7 ± 12 | 1052.52 ± 0.95 | 169.4 ± 8.6 | 1049.89 ± 0.94 | viscosity ([1]; 333.15 K): 133 ± 5.5 mPa·s; mass density ([1]; 333.15 K): 1047.18 ± 0.93 kg/m3; viscosity ([1]; 338.15 K): 110.8 ± 3.8 mPa·s; mass density ([1]; 338.15 K): 1044.46 ± 0.93 kg/m3; viscosity ([1]; 343.15 K): 89.4 ± 2.3 mPa·s; mass density ([1]; 343.15 K): 1041.73 ± 0.92 kg/m3; viscosity ([1]; 348.15 K): 76.1 ± 1.6 mPa·s; mass density ([1]; 348.15 K): 1039.05 ± 0.92 kg/m3; viscosity ([1]; 353.15 K): 65.3 ± 1.1 mPa·s; mass density ([1]; 353.15 K): 1036.32 ± 0.91 kg/m3; refractive index ([2]; 293.15 K): 1.5132 ± 0.0005; refractive index ([2]; 298.15 K): 1.5119 ± 0.0005; refractive index ([2]; 303.15 K): 1.5106 ± 0.0005; refractive index ([2]; 308.15 K): 1.5093 ± 0.0005; refractive index ([2]; 313.15 K): 1.508 ± 0.0005; refractive index ([2]; 318.15 K): 1.5067 ± 0.0005; refractive index ([2]; 323.15 K): 1.5054 ± 0.0005; refractive index ([2]; 328.15 K): 1.5041 ± 0.0005; refractive index ([2]; 333.15 K): 1.5028 ± 0.0005 |
| CCn1cc[n+](CCCCCCO)c1.[Cl-] [1-ethyl-3-(6-hydroxyhexyl)-1H-imidazolium chloride] | 1348.1 ± 180 | 42.32 ± 0.69 | 861.7 ± 100 | 41.3 ± 0.68 | 604.5 ± 61 | 1101.74 ± 1.1 | 39.95 ± 0.67 | 431.3 ± 38 | 1098.91 ± 1 | 38.75 ± 0.66 | 294 ± 21 | 1096.23 ± 1 | 37.4 ± 0.64 | 217.7 ± 13 | 1093.53 ± 1 | 36.25 ± 0.63 | 163.9 ± 8.1 | 1090.95 ± 1 | 132.2 ± 5.4 | 1088.27 ± 1 | viscosity ([1]; 333.15 K): 102.6 ± 3.2 mPa·s; mass density ([1]; 333.15 K): 1085.63 ± 1 kg/m3; viscosity ([1]; 338.15 K): 84.7 ± 2.1 mPa·s; mass density ([1]; 338.15 K): 1083.07 ± 1 kg/m3; viscosity ([1]; 343.15 K): 67.8 ± 1.2 mPa·s; mass density ([1]; 343.15 K): 1080.43 ± 1 kg/m3; viscosity ([1]; 348.15 K): 57.4 ± 0.9 mPa·s; mass density ([1]; 348.15 K): 1077.84 ± 1 kg/m3; viscosity ([1]; 353.15 K): 49.1 ± 0.8 mPa·s; mass density ([1]; 353.15 K): 1075.27 ± 0.99 kg/m3; refractive index ([2]; 293.15 K): 1.5115 ± 0.0005; refractive index ([2]; 298.15 K): 1.5102 ± 0.0005; refractive index ([2]; 303.15 K): 1.5089 ± 0.0005; refractive index ([2]; 308.15 K): 1.5076 ± 0.0005; refractive index ([2]; 313.15 K): 1.5063 ± 0.0005; refractive index ([2]; 318.15 K): 1.505 ± 0.0005; refractive index ([2]; 323.15 K): 1.5037 ± 0.0005; refractive index ([2]; 328.15 K): 1.5024 ± 0.0005; refractive index ([2]; 333.15 K): 1.5011 ± 0.0005 |
| Cn1cc[n+](CCCCCCO)c1.[Cl-] [3-(6-hydroxyhexyl)-1-methylimidazolium chloride] | 1025.9 ± 130 | 49.95 ± 0.77 | 679.8 ± 72 | 48.75 ± 0.76 | 489.7 ± 46 | 1119.49 ± 1.1 | 47.75 ± 0.75 | 357.6 ± 29 | 1116.65 ± 1.1 | 46.65 ± 0.73 | 249.7 ± 16 | 1113.91 ± 1.1 | 45.35 ± 0.72 | 188 ± 10 | 1111.28 ± 1.1 | 43.95 ± 0.71 | 143.4 ± 6.3 | 1108.63 ± 1.1 | 116.6 ± 4.2 | 1105.92 ± 1.1 | viscosity ([1]; 333.15 K): 91.2 ± 2.4 mPa·s; mass density ([1]; 333.15 K): 1103.4 ± 1.1 kg/m3; viscosity ([1]; 338.15 K): 75.7 ± 1.6 mPa·s; mass density ([1]; 338.15 K): 1100.78 ± 1 kg/m3; viscosity ([1]; 343.15 K): 60.6 ± 1 mPa·s; mass density ([1]; 343.15 K): 1098.14 ± 1 kg/m3; viscosity ([1]; 348.15 K): 51.3 ± 0.7 mPa·s; mass density ([1]; 348.15 K): 1095.59 ± 1 kg/m3; viscosity ([1]; 353.15 K): 43.8 ± 0.7 mPa·s; mass density ([1]; 353.15 K): 1092.92 ± 1 kg/m3; refractive index ([2]; 293.15 K): 1.5106 ± 0.0005; refractive index ([2]; 298.15 K): 1.5093 ± 0.0005; refractive index ([2]; 303.15 K): 1.508 ± 0.0005; refractive index ([2]; 308.15 K): 1.5067 ± 0.0005; refractive index ([2]; 313.15 K): 1.5054 ± 0.0005; refractive index ([2]; 318.15 K): 1.5041 ± 0.0005; refractive index ([2]; 323.15 K): 1.5028 ± 0.0005; refractive index ([2]; 328.15 K): 1.5015 ± 0.0005; refractive index ([2]; 333.15 K): 1.5002 ± 0.0005 |
| OCCCCCCn1cc[nH+]c1.[Cl-] [1-(6-hydroxyhexyl)imidazolium chloride] | 587.2 ± 59 | 51.25 ± 0.78 | 420 ± 36 | 50.05 ± 0.77 | 320.1 ± 24 | 1136.59 ± 1.1 | 48.85 ± 0.76 | 245.6 ± 16 | 1133.52 ± 1.1 | 47.75 ± 0.75 | 180.5 ± 9.6 | 1130.53 ± 1.1 | 46.4 ± 0.73 | 140.6 ± 6.1 | 1127.58 ± 1.1 | 44.95 ± 0.72 | 110.4 ± 3.7 | 1124.63 ± 1.1 | 91.4 ± 2.4 | 1121.67 ± 1.1 | viscosity ([1]; 333.15 K): 72.6 ± 1.4 mPa·s; mass density ([1]; 333.15 K): 1118.72 ± 1.1 kg/m3; viscosity ([1]; 338.15 K): 60.7 ± 1 mPa·s; mass density ([1]; 338.15 K): 1115.77 ± 1.1 kg/m3; viscosity ([1]; 343.15 K): 48.9 ± 0.8 mPa·s; mass density ([1]; 343.15 K): 1112.84 ± 1.1 kg/m3; viscosity ([1]; 348.15 K): 41.3 ± 0.7 mPa·s; mass density ([1]; 348.15 K): 1109.92 ± 1.1 kg/m3; viscosity ([1]; 353.15 K): 35 ± 0.6 mPa·s; mass density ([1]; 353.15 K): 1107.03 ± 1.1 kg/m3; refractive index ([2]; 293.15 K): 1.5093 ± 0.0005; refractive index ([2]; 298.15 K): 1.508 ± 0.0005; refractive index ([2]; 303.15 K): 1.5067 ± 0.0005; refractive index ([2]; 308.15 K): 1.5054 ± 0.0005; refractive index ([2]; 313.15 K): 1.5041 ± 0.0005; refractive index ([2]; 318.15 K): 1.5028 ± 0.0005; refractive index ([2]; 323.15 K): 1.5015 ± 0.0005; refractive index ([2]; 328.15 K): 1.5002 ± 0.0005; refractive index ([2]; 333.15 K): 1.4989 ± 0.0005 |
